According to patent publication US4529603A, “Pharmaceutical composition and method for treatment of psychomotor excitement” (priority 1983, dated 1985):
Where a name gives a salt, the structure may show the parent alone.

Columns and labels:
[1] = tested on: quantity of spontaneous movement of mice; assay: Spontaneous movement of mice pretreated with PIH (Animex); assay type: in vivo
Method: Three mice as one group were put in a movement measuring box of Animex and quantity of spontaneous movements of the mice were measured at given intervals of time.
Thereafter, they gradually became calm and crouched after about 30-40 minutes resulting in much decrease in their spontaneous moving quantity. β-phenylisopropylhydrazine hydrochloride (Catron, trade name) (referred to as "PIH" hereinafter) which is a monoamine oxidase inhibitor (MAOI) was intraperitoneally administered to the mice in an amount of 50 mg/kg.
Separately, 200 mg/kg of DL-erythro-DOPS was intraperitoneally injected to the mice and the effects thereof were examined.
In FIG. 1 the axis of ordinates indicates the quantity of movement (counts/5 min.) and the axis of abscissae indicates the time (minute) from the beginning of measurement of the quantity of spontaneous movement which was after 30 minutes from administration of DL-erythro-DOPS.

[2] = tested on: Amine content in the brain; assay: Amine content in the brain of mice administered with erythro-DOPS; assay type: in vivo; settings: for Dopamine content in the brain / Noradrenaline (NA) content in the brain / Serotonin content in the brain: mean of three mice ±SD
Method: PIH (50 mg/kg) was previously administered to mice and after lapse of 17 hours, physiological saline or DL-erythro-DOPS (200 mg/kg) was intraperitoneally injected to the mice.
Amine content in the brain was measured after a lapse of 30 minutes from the injection.
The content was expressed as ng/g wet weight and shown as mean value of the three mice±SD.

[3] = tested on: ptosis induced by tetrabenazine; assay: Ptosis induced by tetrabenazine; assay type: in vivo; settings: for effects of erythro-DOPS on combination use of a peripheral decarboxylase inhibitor: combination with erythro-DOPS; for Ptosis score: tetrabenazine 40 mg/kg i.p., 3 hrs, Mean ± S.E., N 6
Method: L-threo-DOPS (100 mg/kg and 200 mg/kg) was intraperitoneally injected at the same time with the intraperitoneal injection of tetrabenazine (40 mg/kg) and at 1 hr. after the intraperitoneal injection of benserazide or carbidopa.
The score of ptosis was measured by the method of Fukushima et al. (Arch. Int. Pharmacodyn. Therp. 229 163 1977) at 3 hrs. after the injection of tetrabenazine.

[4] = animal experiments; U.S. Pat. No. 3,920,728; cited from earlier work
[5] = Acute oral toxicity (LD50); settings: mouse, in vivo
[6] = major tranquilizers; cited from earlier work
[7] = continuously in blood; cited from earlier work
[8] = tested on: aromatic L-amino acid decarboxylase; settings: decarboxylation by aromatic L-amino acid decarboxylase; cited from earlier work
harmaline induced tremor = settings: Japanese Patent Publication No. 125630/1977; cited from earlier work
orthostatic hypotension = settings: U.S. Pat. No. 4,330,558; cited from earlier work
[9] = tested on: freezing phenomenon in parkinson's disease; settings: UK Patent Publication No. 2106388; cited from earlier work
[10] = tested on: quantity of spontaneous movement of mice increased by administration of methamphetamine; assay: Spontaneous movement of mice with methamphetamine; assay type: in vivo
Method: The same experimental system of measuring spontaneous movement quantity of mice as used in Experimental Example 1 was employed in this Example.
In FIG. 2, the axis of ordinates indicates the quantity of spontaneous movement and the axis of abscissa indicates the time (minute) when the time at which the administration of methamphetamine (1.4 mg/kg) alone or methamphetamine with DL-erythro-DOPS (200 mg/kg) was carried out was taken as zero point.

mania = settings: cited from earlier work
[11] = tested on: Amine content in the brain; assay: Amine content in the brain of PIH administered mice; assay type: in vivo; settings: PIH 50 mg/kg i.p., 17 hours, mean of three mice ±SD
Method: A physiological saline or PIH (50 mg/kg) was intraperitoneally injected to mice and content of amine in the brain was measured after 17 hours.
The measurement was substantially in accordance with the method of Ogasawara et al (J. Chromatography 180, 119). The content was expressed as ng/g wet weight and shown as mean value of the three mice ±SD.

[12] = tested on: quantity of spontaneous movement of mice administered with tranylcypromine; assay: Spontaneous movement of mice administered with tranylcypromine; assay type: in vivo
Method: The same experimental system of measuring the quantity of spontaneous movement of mice as used in Experimental Example 1 was used in this Example.
In FIG. 3, the axis of ordinates indicates the quantity of spontaneous movement and the axis of abscissae indicates the lapse of time (minute) and the arrows indicate the time when administration was conducted.

[13] = PIH 50 mg/kg i.p., 16 hours after administration
[14] = PIH 50 mg/kg + physiological saline, 30 minutes after injection
[15] = DL-erythro-DOPS 200 mg/kg i.p. together with methamphetamine 1.4 mg/kg
[16] = DL-erythro-DOPS given 180 minutes after tranylcypromine
[17] = PIH 50 mg/kg 17 hours before + DL-erythro-DOPS 200 mg/kg i.p., 30 minutes

## N[C@H](C(=O)O)[C@@H](O)c1ccc(O)c(O)c1 (relative stereo) [erythro-DOPS, erythro-3-(3,4-dihydroxyphenyl)serine]
[1]; summary of Experimental Examples 1 to 3
  suppression of psychomotor excitement: suppresses psychomotor excitement
[2]; Experimental Examples 4 and 5
  change of contents of amines in the brain (NA, dopamine, serotonin): only NA significantly increases
[3]; administration of erythro-DOPS
  ptosis induced by tetrabenazine: enhanced
[4]
  antihypertensive or antidepressive effect: has an antihypertensive or antidepressive effect
[5]
  Toxicity: extremely low
[5]; po
  LD50: ≥ 5000 mg/kg

## NC(CO)C(=O)NNCc1ccc(O)c(O)c1O (stereo not drawn) [benserazide]
[3]
  effects of erythro-DOPS on combination use of a peripheral decarboxylase inhibitor: significantly enhanced

## CN(C)CCCN1c2ccccc2Sc2ccc(Cl)cc21 [Chloropromazine]
[6]
  tranquilizing effects: strong tranquilizing effects

## lithium
[7]
  lithium concentration in blood at which lithium poisoning will occur: ≥ 2.0 mEq/l

## O=C(CCCN1CCC(O)(c2ccc(Cl)cc2)CC1)c1ccc(F)cc1 [haloperidol]
[6]
  tranquilizing effects: strong tranquilizing effects

## N[C@H](C(=O)O)C(O)c1ccc(O)c(O)c1 (stereo partly drawn) [L-DOPS]
[8]
  conversion to noradrenaline in vivo: converted to noradrenaline

## N[C@H](C(=O)O)[C@@H](O)c1ccc(O)c(O)c1 (racemic) [L-erythro-DOPS, L or DL-erythro-3-(3,4-dihydroxyphenyl)serine]
[3]; 100 mg/kg i.p. alone
  Ptosis score: 2.0 ± 0.4
[3]; 200 mg/kg i.p. alone
  Ptosis score: 2.3 ± 0.5
[8]
  conversion to noradrenaline in vivo: to d-NA

## C[C@@](Cc1ccc(O)c(O)c1)(NN)C(=O)O [carbidopa]
[3]
  effects of erythro-DOPS on combination use of a peripheral decarboxylase inhibitor: significantly enhanced

## N[C@H](C(=O)O)[C@H](O)c1ccc(O)c(O)c1 (relative stereo) [threo-DOPS]
[4]
  antihypertensive or antidepressive effect: has an antihypertensive or antidepressive effect
Harmaline induced tremor
  effect on harmaline induced tremor: inhibitory effect
Orthostatic hypotension
  treatment of orthostatic hypotension: clinically effective
[9]
  treatment of freezing phenomenon in parkinson's disease: clinically effective

## CN[C@@H](C)Cc1ccccc1 [methamphetamine]
[10]; methamphetamine 1.4 mg/kg i.p.
  quantity of spontaneous movement: abruptly increased
  time to restoration to nearly the former state: 2 h
[10]; methamphetamine 1.4 mg/kg i.p., from the injection
  time after which quantity of spontaneous movement began to decrease: 50 min

## COc1ccc2c(c1)N(C[C@H](C)CN(C)C)c1ccccc1S2 [levomepromazine]
[6]
  tranquilizing effects: strong tranquilizing effects

## NC(=O)N1c2ccccc2C=Cc2ccccc21 [carbamazepine]
mania; human, in vivo
  antimanic effect: has an antimanic effect

## CC(Cc1ccccc1)NN (stereo not drawn) [PIH, β-phenylisopropylhydrazine hydrochloride]
[1]; [13]
  quantity of spontaneous movement: tendencies of increase in the spontaneous movement quantity
  time required before the mice became calm: increase in time required before the mice became calm
[11]; **: P <0.05
  Dopamine content in the brain: 1026 ± 122 ng/g wet weight
[11]; *: P <0.005
  Noradrenaline (NA) content in the brain: 1085 ± 79 ng/g wet weight
  Serotonin content in the brain: 1260 ± 39 ng/g wet weight
[2]; [14]
  Dopamine content in the brain: 941 ± 56 ng/g wet weight
  Noradrenaline (NA) content in the brain: 832 ± 88 ng/g wet weight
  Serotonin content in the brain: 942 ± 133 ng/g wet weight

## N[C@@H]1C[C@H]1c1ccccc1 (relative stereo) [tranylcyromine]
[12]; 50 mg/kg i.p.
  spontaneous movement: gradually increased
[12]; 50 mg/kg i.p., after administration, then maintained
  time to maximum spontaneous movement: 120 min

## N[C@H](C(=O)O)[C@H](O)c1ccc(O)c(O)c1 [L-threo-DOPS]
[8]
  conversion to noradrenaline in vivo: converted to l-NA

## N[C@H](C(=O)O)[C@@H](O)c1ccc(O)c(O)c1 (relative stereo) [DL-erythro-DOPS, DL-erythro-3-(3,4-dihydroxyphenyl)serine]
[1]; DL-erythro-DOPS 200 mg/kg i.p., mice pretreated with PIH (50 mg/kg)
  quantity of spontaneous movement: conspicuous decrease in the quantity of spontaneous movement
[10]; [15]
  action of methamphetamine to increase the quantity of spontaneous movement: retrained
  increase of the quantity of movement: not noticeable
[12]; [16]
  quantity of movement: began to decrease
  time after which the quantity of movement began to decrease: about 20 minutes
[12]; DL-erythro-DOPS given 180 minutes after tranylcypromine, then returned to original increased state
  duration of decrease in quantity of movement: 30 to 90 min
[2]; [17]
  Dopamine content in the brain: 895 ± 52 ng/g wet weight
  Serotonin content in the brain: 821 ± 92 ng/g wet weight
[2]; PIH 50 mg/kg 17 hours before + DL-erythro-DOPS 200 mg/kg i.p., 30 minutes, *: P <0.005
  Noradrenaline (NA) content in the brain: 1476 ± 105 ng/g wet weight

## O=C(O)O [lithium carbonate]
mania; treatment with lithium carbonate
  time before a noticeable effect: 3 to 8 days
